Test results reported in PMC9463526 (Journal of Pharmaceutical Analysis, 2022).

What was measured:
[1] = Analyte stability in brain homogenate; type: physicochemical, human; conditions: for Freeze-thaw stability, Accuracy / Freeze-thaw stability, Mean concentration / Freeze-thaw stability, Difference: 3 cycles; for Freeze-thaw stability, Difference / Benchtop stability, Difference / Processed sample stability, Difference / Autosampler stability (5 °C), Difference / Long-term stability (−20 °C), Difference: vs freshly processed QC; for Benchtop stability, Accuracy / Benchtop stability, Mean concentration / Benchtop stability, Difference: 6 h; for Processed sample stability, Accuracy / Processed sample stability, Mean concentration / Processed sample stability, Difference: 22 h; for Autosampler stability (5 °C), Accuracy / Autosampler stability (5 °C), Mean concentration / Autosampler stability (5 °C), Difference: 96 h; for Long-term stability (−20 °C), Accuracy / Long-term stability (−20 °C), Mean concentration / Long-term stability (−20 °C), Difference: 39 days
Protocol: (§1) The stability of the analytes was studied under various storage and processing conditions. […] Short- and long-term stability studies of all analytes were conducted in human blank plasma and brain homogenate under several storage conditions. Analyte stability in biological matrices was analyzed using freshly prepared calibration standards and QC samples. The percentage difference between the stability and freshly processed QC was also assessed. Re-injection reproducibility was evaluated within the sample stability period in the autosampler. Analytes were considered stable if the accuracy at each level was ±15.0% of the nominal value. Additionally, the difference from corresponding comparison QC samples must be within ±15.0%.

[2] = Equilibrium dialysis, fraction unbound in brain homogenate; type: in vitro ADME, human; conditions: pH 7.4; human brain homogenate spiked at 20 and 200 nM; 16 h equilibrium dialysis; read-out: Fraction unbound (fu), Brain
Protocol: (§2) Equilibrium dialysis was employed to measure the fraction unbound of analytes in plasma, brain, and brain tumor tissue homogenates using 96-well DispoEquilibrium Dialyzer plates with a 10 kDa cut-off regenerated cellulose membrane. Dialysis was performed using 180 μL of human plasma or tissue homogenate against an equal volume of PBS (pH 7.4) in a dual-plate rotator (Harvard Apparatus, Holliston, MA, USA). Equilibrium time was initially optimized by analyzing samples after 2, 4, 6, 8, 16, and 24 h of dialysis at concentrations of 20 and 200 nM in human plasma and brain homogenate. The dialysates were collected and processed as described in Sections 2.3.2 and 2.3.3. The recovery of analytes was calculated as the ratio of analyte concentration after dialysis (sum of concentrations found in PBS and matrix fractions) to the total concentration to ensure the reliability and reproducibility of the assay. The experiments were repeated at least three times, and each sample in triplicate and average fraction unbound values were determined.
(§3) The fraction unbound in plasma (fu, plasma) and tissue homogenate (fu, hom) was evaluated as the analyte concentration ratio of post-dialysis PBS (cu) to post-dialysis plasma (cp, Eq. (1)) or homogenate (chom, Eq. (2)).(1) fu,plasma =cu/cp (2) fu,hom =cu/chom
(§4) The fraction unbound in the actual tissue (fu, tissue) was obtained by incorporating the unbound fraction in the tissue homogenate (fu, hom) and the dilution factor (Df) into Eq. (3).(3) fu,tissue = fu,hom/[Df - (Df - 1)fu,hom]

[3] = Analyte stability in human plasma; type: physicochemical; conditions: for Freeze-thaw stability, Accuracy / Freeze-thaw stability, Mean concentration / Freeze-thaw stability, Difference: 3 cycles; for Freeze-thaw stability, Difference / Benchtop stability, Difference / Processed sample stability, Difference / Autosampler stability (5 °C), Difference / Long-term stability (−20 °C), Difference: vs freshly processed QC; for Benchtop stability, Accuracy / Benchtop stability, Mean concentration / Benchtop stability, Difference: 19 h; for Processed sample stability, Accuracy / Processed sample stability, Mean concentration / Processed sample stability, Difference: 23 h; for Autosampler stability (5 °C), Accuracy / Autosampler stability (5 °C), Mean concentration / Autosampler stability (5 °C), Difference: 112 h; for Long-term stability (−20 °C), Accuracy / Long-term stability (−20 °C), Mean concentration / Long-term stability (−20 °C), Difference: 27 days
Protocol: as §1

[4] = Equilibrium dialysis, fraction unbound in plasma; type: in vitro ADME, human; conditions: pH 7.4, 16 h equilibrium dialysis
Protocol: as §2, §3
(§5) Unbound drug levels in the actual plasma and brain tumor tissue were measured using dialysis for 16 h to reach equilibrium. The mean of fraction unbound values determined in five patient samples was calculated.

[5] = Equilibrium dialysis, fraction unbound in patient brain tumor tissue; type: in vitro ADME; conditions: human, five patients, 16 h equilibrium dialysis
Protocol: as §2, §3, §4, §5
The validated bioanalytical method was employed to investigate analytes pharmacokinetics in the plasma, brain tumor, and CSF in GBM patients (ClinicalTrials.gov identifier: NCT04391595). The protocol was reviewed and approved by the Institutional Review Board of the Barrow Neurological Institute, St. Joseph's Hospital and Medical Center (Phoenix, AZ, USA). All patients enrolled in the trial provided written informed consent. […] Blood, CSF, and GBM tissue (including gadolinium-contrast enhancing and non-enhancing regions) samples were obtained intra-operatively from each patient on the […] on the planned operation day. Blood was centrifuged at 4 °C and 3,000 r/min for 10 min; plasma was subsequently collected. Brain tumors were resected 7–9 h after the last dose was administered. Once resected, the tissue samples were rinsed with PBS, paper dried, and freshly frozen in liquid nitrogen. The samples were then stored at −80 °C in a freezer for later analysis.

- Freeze-thaw stability, Accuracy ([1]; HQC 400.0 nM): 108.7%
- Freeze-thaw stability, Mean concentration ([1]; HQC 400.0 nM): 434.9 nM
- Freeze-thaw stability, Difference ([1]; HQC 400.0 nM): 1.4%
- Freeze-thaw stability, Accuracy ([1]; LQC 0.6 nM): 108.5%
- Freeze-thaw stability, Mean concentration ([1]; LQC 0.6 nM): 0.651 nM
- Freeze-thaw stability, Difference ([1]; LQC 0.6 nM): −1.5%
- Benchtop stability, Accuracy ([1]; HQC 400.0 nM): 93.7%
- Benchtop stability, Mean concentration ([1]; HQC 400.0 nM): 375.0 nM
- Benchtop stability, Difference ([1]; HQC 400.0 nM): −4.4%
- Benchtop stability, Accuracy ([1]; LQC 0.6 nM): 100.0%
- Benchtop stability, Mean concentration ([1]; LQC 0.6 nM): 0.6 nM
- Benchtop stability, Difference ([1]; LQC 0.6 nM): 2.3%
- Processed sample stability, Accuracy ([1]; HQC 400.0 nM): 97.8%
- Processed sample stability, Mean concentration ([1]; HQC 400.0 nM): 391.1 nM
- Processed sample stability, Difference ([1]; HQC 400.0 nM): −0.2%
- Processed sample stability, Accuracy ([1]; LQC 0.6 nM): 100.5%
- Processed sample stability, Mean concentration ([1]; LQC 0.6 nM): 0.603 nM
- Processed sample stability, Difference ([1]; LQC 0.6 nM): 2.7%
- Autosampler stability (5 °C), Accuracy ([1]; HQC 400.0 nM): 100.3%
- Autosampler stability (5 °C), Mean concentration ([1]; HQC 400.0 nM): 401.3 nM
- Autosampler stability (5 °C), Difference ([1]; HQC 400.0 nM): 2.7%
- Autosampler stability (5 °C), Accuracy ([1]; LQC 0.6 nM): 101.9%
- Autosampler stability (5 °C), Mean concentration ([1]; LQC 0.6 nM): 0.612 nM
- Autosampler stability (5 °C), Difference ([1]; LQC 0.6 nM): 10.3%
- Long-term stability (−20 °C), Accuracy ([1]; HQC 400.0 nM): 112.0%
- Long-term stability (−20 °C), Mean concentration ([1]; HQC 400.0 nM): 448.1 nM
- Long-term stability (−20 °C), Difference ([1]; HQC 400.0 nM): 4.5%
- Long-term stability (−20 °C), Accuracy ([1]; LQC 0.6 nM): 105.9%
- Long-term stability (−20 °C), Mean concentration ([1]; LQC 0.6 nM): 0.635 nM
- Long-term stability (−20 °C), Difference ([1]; LQC 0.6 nM): −3.9%
- fraction unbound at 16 h [2]: 0.021
- Freeze-thaw stability, Accuracy ([3]; HQC 400.0 nM): 99.6%
- Freeze-thaw stability, Mean concentration ([3]; HQC 400.0 nM): 398.6 nM
- Freeze-thaw stability, Difference ([3]; HQC 400.0 nM): 0.3%
- Freeze-thaw stability, Accuracy ([3]; LQC 0.6 nM): 97.2%
- Freeze-thaw stability, Mean concentration ([3]; LQC 0.6 nM): 0.583 nM
- Freeze-thaw stability, Difference ([3]; LQC 0.6 nM): 2.9%
- Benchtop stability, Accuracy ([3]; HQC 400.0 nM): 102.2%
- Benchtop stability, Mean concentration ([3]; HQC 400.0 nM): 408.9 nM
- Benchtop stability, Difference ([3]; HQC 400.0 nM): 2.8%
- Benchtop stability, Accuracy ([3]; LQC 0.6 nM): 99.9%
- Benchtop stability, Mean concentration ([3]; LQC 0.6 nM): 0.599 nM
- Benchtop stability, Difference ([3]; LQC 0.6 nM): 3.5%
- Processed sample stability, Accuracy ([3]; HQC 400.0 nM): 101.4%
- Processed sample stability, Mean concentration ([3]; HQC 400.0 nM): 405.7 nM
- Processed sample stability, Difference ([3]; HQC 400.0 nM): 2.7%
- Processed sample stability, Accuracy ([3]; LQC 0.6 nM): 88.9%
- Processed sample stability, Mean concentration ([3]; LQC 0.6 nM): 0.534 nM
- Processed sample stability, Difference ([3]; LQC 0.6 nM): −2%
- Autosampler stability (5 °C), Accuracy ([3]; HQC 400.0 nM): 95.6%
- Autosampler stability (5 °C), Mean concentration ([3]; HQC 400.0 nM): 382.5 nM
- Autosampler stability (5 °C), Difference ([3]; HQC 400.0 nM): −2%
- Autosampler stability (5 °C), Accuracy ([3]; LQC 0.6 nM): 95.1%
- Autosampler stability (5 °C), Mean concentration ([3]; LQC 0.6 nM): 0.57 nM
- Autosampler stability (5 °C), Difference ([3]; LQC 0.6 nM): 1.3%
- Long-term stability (−20 °C), Accuracy ([3]; HQC 400.0 nM): 104.7%
- Long-term stability (−20 °C), Mean concentration ([3]; HQC 400.0 nM): 418.8 nM
- Long-term stability (−20 °C), Difference ([3]; HQC 400.0 nM): 2.7%
- Long-term stability (−20 °C), Accuracy ([3]; LQC 0.6 nM): 101.7%
- Long-term stability (−20 °C), Mean concentration ([3]; LQC 0.6 nM): 0.61 nM
- Long-term stability (−20 °C), Difference ([3]; LQC 0.6 nM): −4%
- fraction unbound at 16 h ([4]; human, plasma of five GBM patients, read-out: Fraction unbound (fu), Plasma (patients)): 0.023
- fraction unbound at 16 h ([4]; pooled human plasma spiked at 20 and 200 nM, read-out: Fraction unbound (fu), Plasma (pooled)): 0.024
- fraction unbound at 16 h ([5]; pH 7.4, gadolinium contrast enhancing GBM region, read-out: Fraction unbound (fu), GBM (E)): 0.022
- fraction unbound at 16 h ([5]; pH 7.4, gadolinium contrast non-enhancing GBM region, read-out: Fraction unbound (fu), GBM (NE)): 0.017
Structure (SMILES): CCN1CCN(Cc2ccc(Nc3ncc(F)c(-c4cc(F)c5nc(CO)n(C(C)C)c5c4)n3)nc2)CC1 [M20]
